Measured values: ChEMBL document CHEMBL2007661, “Compounds: GSK PKIS; Assays: UNC Frye lab” (2012)
Values joined by “and” are separate entries in the source; they are usually repeats but may differ in a detail not shown here. Identical values can stand only once.

Experiments:
[1] = target: T1, Inhibitor of nuclear factor kappa-B kinase subunit epsilon (Homo sapiens) (UniProt Q14164); conditions: at 1 µM
T1 sequence (whole entry): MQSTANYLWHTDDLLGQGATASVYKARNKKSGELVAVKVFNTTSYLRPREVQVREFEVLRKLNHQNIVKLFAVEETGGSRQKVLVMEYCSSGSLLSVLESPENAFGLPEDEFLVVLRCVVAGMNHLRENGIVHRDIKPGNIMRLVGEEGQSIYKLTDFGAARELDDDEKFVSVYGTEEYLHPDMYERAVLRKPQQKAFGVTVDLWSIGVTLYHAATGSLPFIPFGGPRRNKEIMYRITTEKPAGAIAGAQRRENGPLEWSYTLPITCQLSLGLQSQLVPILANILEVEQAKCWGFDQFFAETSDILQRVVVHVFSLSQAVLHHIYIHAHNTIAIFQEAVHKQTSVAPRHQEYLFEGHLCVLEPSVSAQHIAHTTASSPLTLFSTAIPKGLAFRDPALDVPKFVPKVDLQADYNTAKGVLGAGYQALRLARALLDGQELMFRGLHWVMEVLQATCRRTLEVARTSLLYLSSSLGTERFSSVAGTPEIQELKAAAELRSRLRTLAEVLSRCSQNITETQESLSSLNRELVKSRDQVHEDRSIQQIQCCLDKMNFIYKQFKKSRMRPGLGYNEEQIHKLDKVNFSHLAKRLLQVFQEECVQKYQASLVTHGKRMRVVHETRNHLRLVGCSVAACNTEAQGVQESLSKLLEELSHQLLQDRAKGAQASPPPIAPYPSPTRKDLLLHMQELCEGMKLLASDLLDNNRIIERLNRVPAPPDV

[2] = target: T2, Tyrosine-protein kinase Mer (Homo sapiens) (UniProt Q12866); conditions: at 10 µM
T2 sequence (whole entry): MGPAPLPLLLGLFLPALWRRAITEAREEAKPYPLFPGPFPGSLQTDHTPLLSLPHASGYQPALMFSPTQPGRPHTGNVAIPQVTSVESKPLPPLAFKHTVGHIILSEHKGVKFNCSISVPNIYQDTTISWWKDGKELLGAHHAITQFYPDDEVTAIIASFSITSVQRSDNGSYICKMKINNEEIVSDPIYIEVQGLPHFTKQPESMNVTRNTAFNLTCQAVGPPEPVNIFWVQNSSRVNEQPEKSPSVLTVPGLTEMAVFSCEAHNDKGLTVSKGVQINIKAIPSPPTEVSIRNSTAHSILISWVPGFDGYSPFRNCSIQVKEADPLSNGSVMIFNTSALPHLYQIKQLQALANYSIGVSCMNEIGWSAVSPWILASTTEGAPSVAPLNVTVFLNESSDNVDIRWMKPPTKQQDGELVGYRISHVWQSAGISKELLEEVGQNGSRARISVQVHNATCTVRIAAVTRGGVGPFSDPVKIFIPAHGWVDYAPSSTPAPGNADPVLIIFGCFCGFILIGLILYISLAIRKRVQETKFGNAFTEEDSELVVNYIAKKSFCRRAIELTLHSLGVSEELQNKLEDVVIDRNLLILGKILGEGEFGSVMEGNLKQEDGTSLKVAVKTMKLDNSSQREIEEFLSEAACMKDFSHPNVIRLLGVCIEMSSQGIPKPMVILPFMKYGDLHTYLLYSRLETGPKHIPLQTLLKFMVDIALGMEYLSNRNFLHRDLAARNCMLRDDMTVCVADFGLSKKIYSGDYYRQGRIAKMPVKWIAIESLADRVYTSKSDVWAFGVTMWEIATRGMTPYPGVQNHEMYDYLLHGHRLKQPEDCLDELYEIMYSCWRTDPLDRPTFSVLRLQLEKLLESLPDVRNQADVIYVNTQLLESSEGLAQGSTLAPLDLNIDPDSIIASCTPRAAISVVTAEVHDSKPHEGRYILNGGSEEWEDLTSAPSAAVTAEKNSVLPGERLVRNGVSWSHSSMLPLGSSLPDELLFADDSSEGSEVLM

[3] = target: T3, Serine/threonine-protein kinase TBK1 (Homo sapiens) (UniProt Q9UHD2); conditions: at 1 µM
T3 sequence (whole entry): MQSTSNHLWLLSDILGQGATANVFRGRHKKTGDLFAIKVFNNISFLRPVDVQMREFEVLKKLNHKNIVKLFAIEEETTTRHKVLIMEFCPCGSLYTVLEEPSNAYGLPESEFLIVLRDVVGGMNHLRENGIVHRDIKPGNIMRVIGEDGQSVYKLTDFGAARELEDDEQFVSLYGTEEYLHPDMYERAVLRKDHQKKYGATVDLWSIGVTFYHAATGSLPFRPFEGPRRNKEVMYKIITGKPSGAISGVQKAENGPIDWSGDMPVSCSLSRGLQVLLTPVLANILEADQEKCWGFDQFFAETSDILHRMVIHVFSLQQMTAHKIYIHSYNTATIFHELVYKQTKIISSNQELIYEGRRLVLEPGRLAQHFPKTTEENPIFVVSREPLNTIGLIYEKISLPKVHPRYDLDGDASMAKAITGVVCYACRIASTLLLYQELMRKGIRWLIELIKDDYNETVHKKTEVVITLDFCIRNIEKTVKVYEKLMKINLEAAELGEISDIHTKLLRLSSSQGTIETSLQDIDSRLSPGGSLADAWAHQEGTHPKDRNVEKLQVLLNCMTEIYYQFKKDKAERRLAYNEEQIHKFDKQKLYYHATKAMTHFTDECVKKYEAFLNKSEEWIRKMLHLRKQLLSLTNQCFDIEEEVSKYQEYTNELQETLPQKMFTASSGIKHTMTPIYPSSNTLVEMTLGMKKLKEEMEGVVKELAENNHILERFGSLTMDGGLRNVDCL

In the case of `COc1cccc(-n2ncc3c(N/N=C/c4ccc(S(C)(=O)=O)cc4)ncnc32)c1`, the inhibition [1] is reported as 3% and 0%, the inhibition [2] is reported as 5% and the inhibition [3] is reported as 20% and 30%.
`CC1=C(C(=O)Nc2ccc3[nH]ncc3c2)C(c2ccc(F)cc2)N=C(c2ccc(C(F)(F)F)nc2)N1` (centres undefined) was tested, and the inhibition [1] was 3% and 0%, the inhibition [2] was -4% and the inhibition [3] was 1% and -1%.
With `COc1cccc(-n2ncc3c(N/N=C/c4ccc(C)cc4)ncnc32)c1` the inhibition [1] was 0%, the inhibition [2] was 25% and the inhibition [3] was 1% and 2%.
